In PubChem BioAssay (NCI):
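Dose response: 5 concentrations. Exposure: 48 h. Format: 96-well plates. Endpoint: linear interpolation; highest concentration if not reached. The concentration for 50% growth inhibition is given as GI50. TGI is the concentration that stops growth completely.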

How the values were obtained:
Experiment in all cases: NCI tumour cell line growth inhibition, 48 h
786-0 renal = system: 786-0 renal
A498 renal = system: A498 renal
A549 NSCLC = system: A549 NSCLC
ACHN renal = system: ACHN renal
BT-549 breast = system: BT-549 breast
CAKI-1 renal = system: CAKI-1 renal
CCRF-CEM leukemia = system: CCRF-CEM leukemia
COLO 205 colon = system: COLO 205 colon
DU-145 prostate = system: DU-145 prostate
EKVX NSCLC = system: EKVX NSCLC
HCC-2998 colon = system: HCC-2998 colon
HCT-116 colon = system: HCT-116 colon
HCT-15 colon = system: HCT-15 colon
HL-60(TB) leukemia = system: HL-60(TB) leukemia
HOP-62 NSCLC = system: HOP-62 NSCLC
HOP-92 NSCLC = system: HOP-92 NSCLC
HS 578T breast = system: HS 578T breast
HT29 colon = system: HT29 colon
IGROV1 ovarian = system: IGROV1 ovarian
K-562 leukemia = system: K-562 leukemia
KM12 colon = system: KM12 colon
LOX IMVI melanoma = system: LOX IMVI melanoma
M14 melanoma = system: M14 melanoma
MALME-3M melanoma = system: MALME-3M melanoma
MCF7 breast = system: MCF7 breast
MDA-MB-231 breast = system: MDA-MB-231 breast
MDA-MB-435 = system: MDA-MB-435
MOLT-4 leukemia = system: MOLT-4 leukemia
NCI-H226 lung = system: NCI-H226 lung
NCI-H23 lung = system: NCI-H23 lung
NCI-H460 lung = system: NCI-H460 lung
NCI-H522 lung = system: NCI-H522 lung
NCI/ADR-RES ovarian = system: NCI/ADR-RES ovarian
OVCAR-3 ovarian = system: OVCAR-3 ovarian
OVCAR-4 ovarian = system: OVCAR-4 ovarian
OVCAR-5 ovarian = system: OVCAR-5 ovarian
OVCAR-8 ovarian = system: OVCAR-8 ovarian
PC-3 prostate = system: PC-3 prostate
RPMI-8226 leukemia = system: RPMI-8226 leukemia
SF-268 CNS = system: SF-268 CNS
SF-295 CNS = system: SF-295 CNS
SF-539 CNS = system: SF-539 CNS
SK-MEL-2 melanoma = system: SK-MEL-2 melanoma
SK-MEL-28 melanoma = system: SK-MEL-28 melanoma
SK-MEL-5 melanoma = system: SK-MEL-5 melanoma
SK-OV-3 ovarian = system: SK-OV-3 ovarian
SN12C renal = system: SN12C renal
SNB-19 CNS = system: SNB-19 CNS
SNB-75 CNS = system: SNB-75 CNS
SR leukemia = system: SR leukemia
SW-620 colon = system: SW-620 colon
T-47D breast = system: T-47D breast
TK-10 renal = system: TK-10 renal
UACC-257 melanoma = system: UACC-257 melanoma
UACC-62 melanoma = system: UACC-62 melanoma
UO-31 renal = system: UO-31 renal

With CN(C)CCCOc1ccc(C(=C(c2ccccc2)C2CCCC2)c2ccc(OCCCN(C)C)cc2)cc1 the GI50 (786-0 renal) was 2.62 µM, the TGI (786-0 renal) was 8.3 µM and the GI50 (A498 renal) was 13.8 µM. For the same compound, the TGI (A498 renal) was 28.5 µM, the GI50 (A549 NSCLC) was 3.47 µM and the TGI (A549 NSCLC) was 16.6 µM. It also gave a GI50 (ACHN renal) of 2.12 µM, a TGI (ACHN renal) of 4.7 µM and a GI50 (BT-549 breast) of 15.3 µM. The TGI (BT-549 breast) was 30.8 µM, the GI50 (CAKI-1 renal) was 3.62 µM and the TGI (CAKI-1 renal) was 13.6 µM. The GI50 (CCRF-CEM leukemia) was 2.58 µM, the TGI (CCRF-CEM leukemia) was 6.85 µM and the GI50 (COLO 205 colon) was 1.71 µM. The TGI (COLO 205 colon) was 3.62 µM, the GI50 (DU-145 prostate) was 4.43 µM and the TGI (DU-145 prostate) was 15.2 µM. The GI50 (EKVX NSCLC) was 7.43 µM, the TGI (EKVX NSCLC) was 21.3 µM and the GI50 (HCC-2998 colon) was 1.93 µM. For the same compound, the TGI (HCC-2998 colon) was 3.91 µM, the GI50 (HCT-116 colon) was 1.89 µM and the TGI (HCT-116 colon) was 4.13 µM. For the same compound, the GI50 (HCT-15 colon) was 1.67 µM, the TGI (HCT-15 colon) was 3.22 µM and the GI50 (HL-60(TB) leukemia) was 2.03 µM. It also gave a TGI (HL-60(TB) leukemia) of 4.44 µM, a GI50 (HOP-62 NSCLC) of 14.6 µM and a TGI (HOP-62 NSCLC) of 32.6 µM. For the same compound, the GI50 (HOP-92 NSCLC) was 2.72 µM, the TGI (HOP-92 NSCLC) was 15.2 µM and the GI50 (HS 578T breast) was 2.13 µM. It also gave a TGI (HS 578T breast) of 5.53 µM, a GI50 (HT29 colon) of 1.97 µM and a TGI (HT29 colon) of 3.97 µM. The GI50 (IGROV1 ovarian) was 2.07 µM, the TGI (IGROV1 ovarian) was 4.58 µM and the GI50 (K-562 leukemia) was 2.02 µM. It also gave a TGI (K-562 leukemia) of 5.26 µM, a GI50 (KM12 colon) of 3.56 µM and a TGI (KM12 colon) of 13.1 µM. It also gave a GI50 (LOX IMVI melanoma) of 1.63 µM, a TGI (LOX IMVI melanoma) of 2.99 µM and a GI50 (M14 melanoma) of 1.85 µM. It also gave a TGI (M14 melanoma) of 3.74 µM, a GI50 (MALME-3M melanoma) of 1.64 µM and a TGI (MALME-3M melanoma) of 3.01 µM. The GI50 (MCF7 breast) was 1.33 µM, the TGI (MCF7 breast) was 2.69 µM and the GI50 (MDA-MB-231 breast) was 1.74 µM. It also gave a TGI (MDA-MB-231 breast) of 3.22 µM, a GI50 (MDA-MB-435) of 1.7 µM and a TGI (MDA-MB-435) of 3.09 µM. It also gave a GI50 (MOLT-4 leukemia) of 2.56 µM, a TGI (MOLT-4 leukemia) of 6.34 µM and a GI50 (NCI-H226 lung) of 2.81 µM. For the same compound, the TGI (NCI-H226 lung) was 11.4 µM, the GI50 (NCI-H23 lung) was 4.95 µM and the TGI (NCI-H23 lung) was 17.5 µM. It also gave a GI50 (NCI-H460 lung) of 1.69 µM, a TGI (NCI-H460 lung) of 3.16 µM and a GI50 (NCI-H522 lung) of 1.55 µM. It also gave a TGI (NCI-H522 lung) of 3.12 µM, a GI50 (NCI/ADR-RES ovarian) of 2.85 µM and a GI50 (OVCAR-3 ovarian) of 2.16 µM. The TGI (OVCAR-3 ovarian) was 5.19 µM, the GI50 (OVCAR-4 ovarian) was 1.91 µM and the TGI (OVCAR-4 ovarian) was 4.34 µM. The GI50 (OVCAR-5 ovarian) was 1.85 µM, the TGI (OVCAR-5 ovarian) was 4.68 µM and the GI50 (OVCAR-8 ovarian) was 1.98 µM. It also gave a TGI (OVCAR-8 ovarian) of 4.87 µM, a GI50 (PC-3 prostate) of 3.26 µM and a TGI (PC-3 prostate) of 14.2 µM. The GI50 (RPMI-8226 leukemia) was 2.17 µM, the TGI (RPMI-8226 leukemia) was 5.75 µM and the GI50 (SF-268 CNS) was 2.51 µM. For the same compound, the TGI (SF-268 CNS) was 7.16 µM, the GI50 (SF-295 CNS) was 1.85 µM and the TGI (SF-295 CNS) was 3.98 µM. It also gave a GI50 (SF-539 CNS) of 1.69 µM, a TGI (SF-539 CNS) of 3.06 µM and a GI50 (SK-MEL-2 melanoma) of 11.6 µM. For the same compound, the TGI (SK-MEL-2 melanoma) was 24.1 µM, the GI50 (SK-MEL-28 melanoma) was 1.62 µM and the TGI (SK-MEL-28 melanoma) was 3.01 µM. It also gave a GI50 (SK-MEL-5 melanoma) of 12.1 µM, a TGI (SK-MEL-5 melanoma) of 24.5 µM and a GI50 (SK-OV-3 ovarian) of 17.1 µM. It also gave a TGI (SK-OV-3 ovarian) of 33 µM, a GI50 (SN12C renal) of 1.64 µM and a TGI (SN12C renal) of 3.04 µM. It also gave a GI50 (SNB-19 CNS) of 2.15 µM, a TGI (SNB-19 CNS) of 5.67 µM and a GI50 (SNB-75 CNS) of 9.08 µM. For the same compound, the TGI (SNB-75 CNS) was 22.1 µM, the GI50 (SR leukemia) was 2 µM and the TGI (SR leukemia) was 7.36 µM. It also gave a GI50 (SW-620 colon) of 1.58 µM, a TGI (SW-620 colon) of 3.02 µM and a GI50 (T-47D breast) of 9.86 µM. The TGI (T-47D breast) was 25.3 µM, the GI50 (TK-10 renal) was 14.6 µM and the TGI (TK-10 renal) was 28.9 µM. For the same compound, the GI50 (UACC-257 melanoma) was 10.7 µM, the TGI (UACC-257 melanoma) was 24.1 µM and the GI50 (UACC-62 melanoma) was 1.6 µM. It also gave a TGI (UACC-62 melanoma) of 2.98 µM, a GI50 (UO-31 renal) of 1.54 µM and a TGI (UO-31 renal) of 3.08 µM.
